Data published in US9617225B2 (VIROSTATICS SRL, priority 2012, dated 2017).
Read-outs that look alike come from different tables or passages of the source.

Assays:
Primary T cells [1] = assay: Cytotoxicity, viability by flow cytometry; format: cell-based
Procedure: Primary T cells are cultured and treated with different concentrations of the test compound. Viability is analysed by measuring through flow cytometry based techniques the percentage of viable cells, compared to untreated control=100%).

[2] = tested on: laboratory strain of HIV-1; assay: Antiviral Activity Against HIV (AV), p24 in infected activated primary T cells; format: cell-based; details: for antiviral and antiproliferative activity and cytotoxicity profile: summary in words
Procedure: Antiviral Activity Against HIV (AV)
Activated primary T cells are infected with a laboratory strain of HIV-1, then cultured and exposed to different concentrations of the test compounds. HIV replication is analysed by measuring the viral protein p24 and expressed as percentage of untreated control. Inhibition of viral replication (AV) is then calculated (AV=100 minus the % p24 compared to control, AV of control=0%). Inhibitory concentration 50% for antiviral activity (AV50) is calculated.

[3] = target: human CDK9/CyclinT kinase complex (Homo sapiens (Human), UniProt P50750); assay: In Vitro CDK9/CyclinT Assay (IMAP fluorescent polarization); format: biochemical
Outline: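 Phosphorylation of 400 nM TAMRA-Rbtide (15-mer retinoblastoma-derived peptide) by 5 nM CDK9/CyclinT with 12 μM ATP (=Kmapp) in 20 mM MOPS pH 7, 1 mM DTT, 10 mM MgCl2, 0.01% Tween 20. Reaction run 1 hour at room temperature, stopped with IMAP beads; read by fluorescence polarization.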

Primary T cells [4] = assay: Antiproliferative Activity (AP), mitotic index by flow cytometry; format: cell-based; details: T-cell, read-out: AP50 (μM)
Procedure: Antiproliferative Activity (AP)
Primary T cells are cultured and exposed to different concentrations of the test compounds. Cell proliferation is analysed by measuring mitotic index (ie the number of cell divisions a population of cells undergoes) through flow cytometry based techniques. Mitotic index is expressed as percentage of untreated control. Inhibition of cell proliferation (AP) is then calculated (AP=100 minus % mitotic index compared to control, AP of control=0%). Inhibitory concentration 50% for antiproliferative capacity (AP50) is calculated.

human CDK9/CyclinT kinase complex, sequence (P50750 whole entry): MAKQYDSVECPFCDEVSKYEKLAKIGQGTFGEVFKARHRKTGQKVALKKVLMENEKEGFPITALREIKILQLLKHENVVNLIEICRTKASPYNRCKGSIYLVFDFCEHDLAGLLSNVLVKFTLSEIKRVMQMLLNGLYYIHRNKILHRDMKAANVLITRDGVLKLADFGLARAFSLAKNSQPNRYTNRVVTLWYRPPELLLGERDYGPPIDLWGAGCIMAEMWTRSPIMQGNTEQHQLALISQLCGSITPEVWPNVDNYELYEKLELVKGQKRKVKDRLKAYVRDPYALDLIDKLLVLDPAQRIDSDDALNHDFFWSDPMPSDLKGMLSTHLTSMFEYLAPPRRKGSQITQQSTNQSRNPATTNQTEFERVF
human CDK9/CyclinT kinase complex, sequence (O60563 whole entry partner): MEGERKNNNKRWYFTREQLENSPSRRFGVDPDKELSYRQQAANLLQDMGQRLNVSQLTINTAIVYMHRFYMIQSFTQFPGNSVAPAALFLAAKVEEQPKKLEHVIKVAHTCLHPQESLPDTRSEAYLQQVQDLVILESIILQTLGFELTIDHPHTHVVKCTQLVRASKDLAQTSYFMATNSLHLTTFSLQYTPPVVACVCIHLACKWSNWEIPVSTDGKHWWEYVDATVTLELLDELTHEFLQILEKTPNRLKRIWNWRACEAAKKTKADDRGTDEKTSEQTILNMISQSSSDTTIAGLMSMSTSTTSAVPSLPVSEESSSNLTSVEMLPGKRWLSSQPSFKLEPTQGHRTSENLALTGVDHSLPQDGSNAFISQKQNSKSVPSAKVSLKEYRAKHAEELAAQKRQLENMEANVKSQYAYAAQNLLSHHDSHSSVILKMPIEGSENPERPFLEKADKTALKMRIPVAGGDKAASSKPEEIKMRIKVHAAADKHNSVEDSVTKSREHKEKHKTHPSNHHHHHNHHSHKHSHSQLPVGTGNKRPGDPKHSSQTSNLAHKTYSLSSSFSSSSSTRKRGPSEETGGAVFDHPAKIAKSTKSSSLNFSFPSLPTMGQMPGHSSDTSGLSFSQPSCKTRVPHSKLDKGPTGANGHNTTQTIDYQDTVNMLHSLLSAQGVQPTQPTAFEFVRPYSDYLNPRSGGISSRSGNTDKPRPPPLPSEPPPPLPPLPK

| Structure (SMILES) | TD50 (Primary T cells [1]) | antiviral and antiproliferative activity and cytotoxicity profile [2] | IC50 [3] | IC50 (Primary T cells [4]) | IC50 ([2]; Human immunodeficiency virus 1, T-cell, read-out: AV50 (μM)) | IC50 ([3]; Table 1) |
| --- | --- | --- | --- | --- | --- | --- |
| COc1ccc(Nc2cc(-c3cc(F)ccc3OC)ncn2)cc1C(N)=O [Example 127, 5-[6-(5-Fluoro-2-methoxy-phenyl)-pyrimidin-4-ylamino]-2-methoxy-benzamide] | 7 µM | good antiviral and antiproliferative activity and a good cytotoxicity profile | < 1 µM |  |  |  |
| CNCc1cc(Nc2cc(-c3ccccc3OC)ncn2)ccc1OC [Example 37, N-(4-Methoxy-3-((methylamino)methyl)phenyl)-6-(2-methoxyphenyl)pyrimidin-4-amine] | 2 µM |  |  | 2 µM | > 1.5 µM | < 0.1 µM |
| COc1ccc(Nc2cc(-c3ccccc3OC)ncn2)cc1Cn1cnc2ccccc21 [Example 31, N-(3-((1H-Benzo[d]imidazol-1-yl)methyl)-4-methoxyphenyl)-6-(2-methoxyphenyl)pyrimidin-4-amine] | 1.8 µM | good antiviral and antiproliferative activity and a good cytotoxicity profile | < 0.1 µM |  |  |  |
| COc1ccc(Nc2cc(-c3ccccc3OC(C)C)ncn2)cc1N [Example 79, N^1-[6-(2-Isopropoxy-phenyl)-pyrimidin-4-yl]-4-methoxy-benzene-1,3-diamine] | 15 µM | good antiviral and antiproliferative activity and a good cytotoxicity profile |  |  |  | < 1 µM |
